US12721832B2, “Anti-senescence plant polyphenol drug downregulating senescence-related secretory phenotype and use thereof” (BYHEALTH CO., LTD., priority 2021, dated 2026)

Key:
SASP factors = experiment: LCM and qRT-PCR of SASP factors in mouse lesions; assay type: in vivo, mice; conditions: MIT/PCC1 vs MIT, stromal cells
Description: The stromal cells and cancer cells were specifically separated by LCM technology, total RNA was prepared and used for SASP expression detection. A P>0.05; *, P<0.05; **, P<0.01; ***, P<0.001.
In a preclinical treatment trial, subcutaneously transplanted mice were fed with a standard experimental diet, after 2 weeks chemotherapy drugs mitoxantrone (MIT, dose: 0.2 mg/kg) and/or procyanidin C1 (PCC1) (500 μl, dose: 10 mg/kg) via intraperitoneal administration. The time points were: the former was administrated on the first day of the 3rd, 5th and 7th weeks, and the latter was administrated on the first day of the 5th and 7th weeks. A total of 3 cycles of MIT administration were carried out throughout the course of treatment, and each cycle lasted for 2 weeks. After the course of treatment, mouse tumors were harvested for volume measurement and histological analysis. Each mouse cumulatively received 0.6 mg/kg body weight of MIT and 30 mg/kg body weight of PCC1. In order to cause systemic expression of SASP factor induced by chemotherapy, MIT was administered to mice through intravenous infusion according to the above steps and sequence, but the dose was reduced to 0.1 mg/kg body weight/each time (the cumulative dose of MIT received in the whole course of treatment was 0.3 mg/kg body weight) to reduce drug-related toxicity. […]

aged C57BL/6 mice [1] = experiment: Physical ability test in aged mice; assay type: in vivo; conditions: males and females, PCC1 biweekly
Description: N=5. ^, P>0.05; **, P<0.01.
N=5/group. , P>0.05; ***, P<0.001.
All testing began on day 5 after the last placebo or drug treatment. Maximum walking speed was assessed using the accelerated RotaRod System (TSE System, Chesterfiled, Mo.). The mice were trained on the RotaRod for 3 days at speeds of 4, 6 and 8 r.p.m, lasted for 200 seconds on the 1st, 2nd and 3rd days. On the test day, the mice were placed on the RotaRod, and the test was performed starting at a speed of 4 r.p.m. The rotation speed was accelerated from 4 to 40 r.p.m at intervals of 5 minutes. When the mice fell off the RotaRod, the speed was recorded. The final results were averaged from 3 or 4 trials and normalized to baseline speed. […]
Forelimb grip strength (N) was measured using a Grip Strength Meter (Columbus Instruments, Columbus, Ohio), and the results were averaged from more than 10 trials. […] The mice were only allowed to grasp the wire with their forelimbs, and the hang time was normalized to body weight and expressed as hang duration (sec) x body weight (g). […] Their daily activity and food intake were monitored for 24 h (12 hours of light and 12 hours of dark) by a Comprehensive Laboratory Animal Monitoring System (CLAMS). […] The distance was recorded after the test, and the total work (KJ) was calculated with the following formula: mass (kg)×g (9.8 m/s^2)×distance (m)×sin) (5°).

aged C57BL/6 mice [2] = experiment: Lifespan study in aged C57BL/6 mice; assay type: in vivo; conditions: from age 24-27 months
Description: Starting at 24 to 27 months of age, C57BL/6 mice received intraperitoneal administration of vehicle or PCC1 every two weeks (n=80 for vehicle group; n=91 for PCC1 group). The median survival of animals in each group was calculated and indicated. ****, P<0.0001.
Starting at 24 to 27 months of age, C57BL/6 mice received intraperitoneal administration of vehicle or PCC1 every two weeks (n=80 for vehicle group; n=91 for PCC1 group). The median lifetime survival of animals in each group was calculated and indicated. ****, P <0.0001.
For the cell transplantation study, we obtained […] male C57BL/6 mice by serial rearing in the SPF animal platform, with 4 to 5 animals per cage. We first sorted the mice by body weight from low to high, and then selected mice with similar body weights. Next, the mice were assigned to senescence (SEN) or control (CTRL) transplant treatment at each interval using a random number generator, while the middle mice were assigned to the other treatment, so that the body weights of the senescence and control transplant mice were matched. One month after cell transplantation, when the mice were 18 months old, physical function tests were performed. After that, no further testing was done on the mice other than checking their cages. The earliest deaths occurred approximately 2 months after the last physical function test. […]

## Oc1cc(O)c2c(c1)O[C@H](c1ccc(O)c(O)c1)[C@H](O)[C@H]2c1c(O)cc(O)c2c1O[C@H](c1ccc(O)c(O)c1)[C@H](O)[C@H]2c1c(O)cc(O)c2c1O[C@H](c1ccc(O)c(O)c1)[C@H](O)C2 [PCC1, procyanidin C1]
SASP factors
  MIT-induced SASP expression change upon PCC1: largely reversed
Aged C57BL/6 mice [1]
  physical function during the last 2 months of life vs vehicle: did not show a significant decrease
Aged C57BL/6 mice [2]; P<0.0001
  risk of death HR, PCC1 group/vehicle group: 0.35
Aged C57BL/6 mice [2]; drug every two weeks
  median survival period after treatment, longer than vehicle group: 64.2%
